Measured values: patent publication US9879006B2, “Azaindole acetic acid derivatives and their use as prostaglandin D2 receptor modulators” (IDORSIA PHARMACEUTICALS LTD, priority 2014, dated 2018)

What was measured:
hCRTH2 receptor [1] = target: T1, hCRTH2 receptor (Homo sapiens, UniProt Q9Y5Y4); experiment: hCRTH2 receptor membranes radioligand displacement assay; settings: displacement of 3H-PGD2 (2.5 nM), HEK293-hCRTH2 membrane fragments, Binding-Buffer with 0.1% BSA
T1 construct: expressed in transfected cells; host or cells: HEK293 (recombinant HEK293-hCRTH2), membrane fragments
T1 sequence (Q9Y5Y4 1-395): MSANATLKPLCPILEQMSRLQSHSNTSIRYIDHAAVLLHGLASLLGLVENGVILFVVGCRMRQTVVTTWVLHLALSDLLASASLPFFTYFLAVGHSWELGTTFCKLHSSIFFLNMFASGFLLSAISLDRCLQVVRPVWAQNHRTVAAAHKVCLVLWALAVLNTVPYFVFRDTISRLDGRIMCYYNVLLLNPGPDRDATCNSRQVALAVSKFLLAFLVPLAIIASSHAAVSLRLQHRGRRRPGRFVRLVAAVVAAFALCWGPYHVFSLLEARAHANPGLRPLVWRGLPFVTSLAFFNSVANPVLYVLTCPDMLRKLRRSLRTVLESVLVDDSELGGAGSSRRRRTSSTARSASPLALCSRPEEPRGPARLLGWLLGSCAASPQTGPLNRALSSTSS
Protocol: Preparation of hCRTH2 Receptor Membranes and Radioligand Displacement Assay:
(§1) First, recombinant HEK293-hCRTH2 cells were detached from culture plates into 5 ml buffer A/plate (Buffer A: 5 mM Tris, 1 mM MgCl2-6H2O pH=7.4) using a rubber policeman. Cells were then transferred into centrifugation tubes and centrifuged for 5 min at 400 g. The cell pellet was resuspended in the same buffer and tubes were frozen at 80° C. Cells were thawed and membrane fragments were generated by homogenization using a polytron homogenizer (30 seconds). The membrane fragments were then centrifuged at 3000 g for 20 minutes and resuspended in buffer C (Buffer C: 75 mM Tris, 25 mM MgCl2, 250 mM Saccharose pH 7.4). Aliquots of membrane fragments were stored at −20° C.
(§2) Binding assay was performed in a final assay volume of 250 μl. First, 25 μl of test compound, previously diluted in Binding-Buffer (Binding-Buffer: 50 mM Tris-Base, 100 mM NaCl, 1 mM EDTA, 0.1% BSA (protease free), 0.01% NaN3, 10 mM MnCl2 pH 7.0) was placed into each well. After addition of 75 μl Binding-Buffer, 50 μl of the radioligand ^3H-PGD2 (at 2.5 nM (220.000 dpm/well) from ANAWA ART0662) was added to each well. Binding assay was started by addition of 100 μl CRTH2 membrane fragments, reaching a final concentration of 20 μg/well. For non-specific binding, PGD2 was added to the reaction mixture to […] final concentration. This assay mix was incubated for 90 minutes at room temperature and then filtered through a GF/C filter 96-well plate which was pre-soaked for 3 hours in 0.5% polyethyleneimine (PEI). The filter-wells were washed three times with ice cold Binding-Buffer. Then, 40 μl of Microscint-40 (Packard) was added to each well and the retained radioactivity quantified in a Topcount (Packard).

[2] = system: eosinophils (PGD2-induced shape change); experiment: Eosinophil shape change assay with human plasma; assay type: cell-based; settings: human polymorphonuclear cells, 50% human plasma, activated with PGD2 100 nM, flow cytometry forward-scatter
Protocol: Eosinophil Shape Change Assay with Human Plasma
After obtaining informed consent, blood samples were drawn by venipuncture according to the protocol approved by the ethics committee of Basel, Switzerland. Polymorphonuclear leukocytes (containing eosinophils, basophils and neutrophils) were isolated using the Polymorphprep™ method (Axis-Shield). In brief, anticoagulated whole blood was layered onto a Polymorphprep gradient (density 1.113 g/ml) and centrifuged at 500 g for 30 min. The polymorphonuclear cell fraction was harvested and depleted for erythrocytes by hypotonic saline lysis.
The polymorphonuclear cells were resuspended in assay buffer (1×PBS with Ca^2+/Mg^2+ supplemented with 0.1% BSA, 10 mM HEPES, and 10 mM Glucose, pH 7.4) at 5×10^6 cells/ml and stained with anti-CD49d-APC ((APC=Allophycocyanin) for 1 hour at RT. Test compounds, at various concentrations, were preincubated 10 min in human plasma (anticoagulated with a thrombin inhibitor). Then, human plasma was added to the polymorphonuclear cells to 50% of final assay volume with polymorphonuclear cells at 4×10^6 cells/ml. After incubation for 10 minutes at 37° C., the polymorphonuclear cells were activated for 5 min at 37° C. by addition of PGD2 at 100 nM final concentration. Activation was stopped by addition of 0.5 ml paraformaldehyde (1%).
Immediately after fixation with paraformaldehyde, the samples were analyzed by FACSCanto flow cytometer (BD Biosciences) and target cells were identified by their forward-scatter (FSC) and side-scatter (SSC) characteristics. Eosinophils were identified by the anti-CD49d-APC signal and their characteristic side-scatter (SSC) profile. Shape change responses, indicative of eosinophil activation, were quantified as the percent of cells with an increased forward-scatter.

hCRTH2 receptor [3] = target: T1, hCRTH2 receptor; experiment: Radioligand displacement assay in presence of human serum albumin (HSA); settings: displacement of 3H-PGD2, Binding-Buffer with 0.5% human serum albumin instead of 0.1% BSA
Protocol: as §1, §2
Radioligand Displacement Assay-Human Serum Albumin (HSA):
Radioligand displacement assay in presence of human serum albumin (HSA) was performed as described above, with following modifications. Binding-Buffer-HSA: Binding-buffer+0.5% Sigma Albumin from Human serum A1887 (instead of 0.1% BSA). A volume of 25 μl test compound, previously diluted in Binding-Buffer-HSA was placed into each well. After addition of 75 μl Binding-Buffer-HSA, 50 μl of ^3H-PGD2 (at 2.5 nM (220.000 dpm/well) from ANAWA ART0662) was added to each well. Remaining protocol was identical as described above.

O=C(O)Cn1c2c(c3nc(F)ccc31)C[C@@H](Nc1ncc(Cl)cn1)CC2 [Example 8, (S)-2-(8-((5-chloropyrimidin-2-yl)amino)-2-fluoro-6,7,8,9-tetrahydro-5H-pyrido[3,2-b]indol-5-yl)acetic acid]
IC50 (hCRTH2 receptor [1]): 19 nM | IC50 [2]: 32 nM | IC50 (hCRTH2 receptor [3]): 22 nM
